Here are results for one molecule from US11464765B2, “Use of an N-substituted pyridyl benzisoselazolone compound” (SHANGHAITECH UNIVERSITY, priority 2020, dated 2022).

SMILES strings stand for the structures. Where two headings read alike, the source gives them in different places.

The conditions of series [1]: human, in vivo; cited from earlier work.
For series [2] the following is noted: mice; cited from earlier work.
For series [3] the following is noted: rats; cited from earlier work.
The test system of series [4] is novel coronavirus (SARS-CoV-2). Description: in vitro cell-virus assay. The format is cell-based.

For the molecule `O=c1c2ccccc2[se]n1-c1ccccc1` [ebselen, Ebselen], in series [1], the “clinical safety and tolerability” value is “safe and well tolerated”. Besides, the oral lethal dose in series [2] is reported as over 2150 mg/kg; in series [3], over 4600 mg/kg. For the same molecule, in series [4] (FIG. 4), the “replication ability of SARS-CoV-2 in cells” value is “significantly inhibits the replication ability of SARS-CoV-2 in cells”. In addition, in series [4] (infected cells, FIG. 3), the “cytopathy caused by novel coronavirus infection” value is on record as “can prevent cytopathy caused by novel coronavirus infection”.
